According to patent US20060223996A1, “IL-12 modulatory compounds” (Synta Pharmaceuticals Corp., priority 2004, published 2006):
pIC50: −log10 of the molar value.

Test system: IL-12
Assay: Human in vitro assay: inhibition of IL-12 production in IFNγ/LPS- or IFNγ/SAC-stimulated human PBMC or THP-1 cells (ELISA)
Assay type: cell-based
Conditions: read-out: IC50 Range (representative in vitro IC50 data)
Description: The biological activities of a heterocyclic compound can be evaluated by a number of cell-based assays. One of such assays can be conducted using cells from human peripheral blood mononuclear cells (PBMC) or human monocytic cell line (THP-1). The cells are stimulated with a combination of human interferon-γ (IFNγ) and lipopolysaccharide or a combination of IFNγ and Staphylococcus aureus Cowan I in the presence of a test compound. The level of inhibition of IL-12 production can be measured by determining the amount of p70 by using a sandwich ELISA assay with anti-human IL-12 antibodies. IC50 of the test compound can then be determined. Specifically, PBMC or THP-1 cells are incubated with the test compound. Cell viability was assessed using the bioreduction of MTS [3-(4,5-dimethylthiazol-2-yl)-5-(3-carboxymethoxyphenyl)-2-(4-sulfophenyl)-2H-tetrazolium](Promega, Madison, Wis.).
Human In Vitro Assay. Human PBMC were isolated by centrifugation using Ficoll-Paque (Pharmacia Biotech, Uppsala, Sweden) and prepared in RPMI medium supplemented with 10% fetal calf serum (FCS), 100 U/mL penicillin, and 100 μg/mL streptomycin. PBMC were plated in wells of a 96-well plate at a concentration of 5×10^5 cells/well, and primed by adding IFNγ (30 U/mL) for 22 h and stimulated by adding LPS (1 μg/mL), or by adding IFNγ (100 U/mL) and then stimulated by adding SAC (0.01%). A test pyrimidine compound was dissolved in DMSO, and added to wells of the 96-well plate. The final DMSO concentration was adjusted to 0.25% in all cultures, including the compound-free control. Human THP-1 cells were plated in wells, primed by adding IFNγ (100 U/mL) for 22 h and stimulated by adding SAC (0.025%) in the presence of different concentrations of the pyrimidine compound. Cell-free supernatants were taken 18 h later for measurement of cytokines. Cell viability was assessed using the bioreduction of MTS. Cell survival was estimated by determining the ratio of the absorbance in compound-treated groups versus compound-free control.
The supernatant was assayed for the amount of IL-12p40, IL-12p70, or IL-10 by using a sandwich ELISA with anti-human antibodies, i.e., a Human IL-12 p40 ELISA kit from R&D Systems (Berkeley, Calif.), and a Human IL-12 p70 or IL-10 ELISA kit from Endogen (Cambridge, Mass.). Assays were based on the manufacturer's instructions.
The biological activities of pyrimidine compounds were tested on human PBMC or THP-1 cells.

Cc1[nH]c2ccc(NC(=O)c3cc(N(C)CC(=O)N4CCOCC4)nc(N4CCOCC4)n3)cc2c1C [Compound 114, 6-[Methyl-(2-morpholin-4-yl-2-oxo-ethyl)-amino]-2-morpholin-4-yl-pyrimidine-4-carboxylic acid (2,3-dimethyl-1H-indol-5-yl)-amide]
pIC50: > 6.00

COCCN(C)c1cc(C(=O)NCCN(C)C)nc(N2CCOCC2)n1 [Compound 162, 6-[(2-Methoxy-ethyl)-methyl-amino]-2-morpholin-4-yl-pyrimidine-4-carboxylic acid (2-dimethylamino-ethyl)-amide]
pIC50: ≤ 6.00

Cc1ccc2cc(NC(=O)Nc3cc(OCCN4CCOCC4)nc(N4CCOCC4)n3)ccc2n1 [Compound 136, 1-(2-Methyl-quinolin-6-yl)-3-[2-morpholin-4-yl-6-(2-morpholin-4-yl-ethoxy)-pyrimidin-4-yl]-urea]
pIC50: > 6.00

Cc1[nH]c2ccc(NC(=O)c3cc(O)nc(N4CCOCC4)n3)cc2c1C [Compound 254, N-(2,3-dimethyl-1H-indol-5-yl)-6-hydroxy-2-morpholinopyrimidine-4-carboxamide]
pIC50: > 6.00

COCCN(C)c1cc(C(=O)Nc2ccc(F)c(N(C)C)c2)nc(N2CCOCC2)n1 [Compound 215, N-(3-(dimethylamino)-4-fluorophenyl)-6-((2-methoxyethyl)(methyl)amino)-2-morpholinopyrimidine-4-carboxamide]
pIC50: > 6.00

CC(=O)N1CCN(C(=O)CNc2cc(C(=O)Nc3ccc4[nH]c(C)c(C)c4c3)nc(N3CCOCC3)n2)CC1 [Compound 102, 6-[2-(4-Acetyl-piperazin-1-yl)-2-oxo-ethylamino]-2-morpholin-4-yl-pyrimidine-4-carboxylic acid (2,3-dimethyl-1H-indol-5-yl)-amide]
pIC50: > 6.00

Cc1[nH]c2ccc(NC(=O)c3cc(OCC(=O)OC(C)(C)C)nc(N4CCOCC4)n3)cc2c1C [Compound 316, [6-(2,3-Dimethyl-1H-indol-5-ylcarbamoyl)-2-morpholin-4-yl-pyrimidin-4-yloxy]-acetic acid tert-butyl ester]
pIC50: > 6.00

O=C(Nc1cccc([N+](=O)[O-])c1)c1cc(OCCN2CCOCC2)nc(N2CCOCC2)n1 [Compound 276, 2-Morpholin-4-yl-6-(2-morpholin-4-yl-ethoxy)-pyrimidine-4-carboxylic acid (3-nitro-phenyl)-amide]
pIC50: ≤ 6.00

NC(=O)c1cccc(NC(=O)c2cc(OCCN3CCOC3=O)nc(N3CCOCC3)n2)c1 [Compound 43, 2-Morpholin-4-yl-6-[2-(2-oxo-oxazolidin-3-yl)-ethoxy]-pyrimidine-4-carboxylic acid (3-carbamoyl-phenyl)-amide]
pIC50: ≤ 6.00

COCCN(C)c1cc(C(=O)Nc2ccc3[nH]c(C)c(C)c3c2)nc(N2CCOCC2)c1 [Compound 158, 4-[(2-Methoxy-ethyl)-methyl-amino]-6-morpholin-4-yl-pyridine-2-carboxylic acid (2,3-dimethyl-1H-indol-5-yl)-amide]
pIC50: > 6.00

Cc1cc(C(=O)Nc2ccc3c(c2)c(C)c(C)n3O)nc(N2CCOCC2)n1 [Compound 319, 6-Methyl-2-morpholin-4-yl-pyrimidine-4-carboxylic acid (1-hydroxy-2,3-dimethyl-1H-indol-5-yl)-amide]
pIC50: > 6.00

CCN(C)c1cccc(NC(=O)c2cc(OCCN3CCOCC3)nc(N3CCOCC3)n2)c1 [Compound 312, 2-Morpholin-4-yl-6-(2-morpholin-4-yl-ethoxy)-pyrimidine-4-carboxylic acid [3-(ethyl-methyl-amino)-phenyl]-amide]
pIC50: > 6.00

Cc1[nH]c2ccc(NC(=O)c3cc(OCCN4CCOCC4)cc(N4CCOCC4)n3)cc2c1C [Compound 29, 6-Morpholin-4-yl-4-(2-morpholin-4-yl-ethoxy)-pyridine-2-carboxylic acid (2,3-dimethyl-1H-indol-5-yl)-amide]
pIC50: > 6.00

CCc1cccc(NC(=O)Nc2cc(OCCN3CCOCC3)nc(N3CCOCC3)n2)c1 [Compound 131, 1-(3-Ethyl-phenyl)-3-[2-morpholin-4-yl-6-(2-morpholin-4-yl-ethoxy)-pyrimidin-4-yl]-urea]
pIC50: > 6.00

COCCN(C)c1cc(C(=O)Nc2cccc(-c3nncn3C)c2)nc(N2CCOCC2)n1 [Compound 208, 6-((2-methoxyethyl)(methyl)amino)-N-(3-(4-methyl-4H-1,2,4-triazol-3-yl)phenyl)-2-morpholinopyrimidine-4-carboxamide]
pIC50: ≤ 6.00

NS(=O)(=O)c1cccc(NC(=O)c2cc(OCCN3CCOCC3)nc(N3CCOCC3)n2)c1 [Compound 50, 2-Morpholin-4-yl-6-(2-morpholin-4-yl-ethoxy)-pyrimidine-4-carboxylic acid (3-sulfamoyl-phenyl)-amide]
pIC50: ≤ 6.00

O=C(Nc1ccc(C(F)(F)F)cc1)c1cc(NCCN2CCOCC2)nc(N2CCOCC2)n1 [Compound 191, 2-morpholino-6-(2-morpholinoethylamino)-N-(4-(trifluoromethyl)phenyl)pyrimidine-4-carboxamide]
pIC50: ≤ 6.00

O=C(Nc1ccc2c(c1)CCC2)c1cc(OCCN2CCOCC2)nc(N2CCOCC2)n1 [Compound 40, 2-Morpholin-4-yl-6-(2-morpholin-4-yl-ethoxy)-pyrimidine-4-carboxylic acid indan-5-ylamide]
pIC50: ≤ 6.00

O=C(Nc1ccc2[nH]c3c(c2c1)CCCC3)Nc1cc(OCCN2CCOCC2)nc(N2CCOCC2)n1 [Compound 325, 1-[2-Morpholin-4-yl-6-(2-morpholin-4-yl-ethoxy)-pyrimidin-4-yl]-3-(6,7,8,9-tetrahydro-5H-carbazol-3-yl)-urea]
pIC50: > 6.00

CON(C)c1cc(C(=O)Nc2ccc3[nH]c(C)c(C)c3c2)nc(N2CCOCC2)n1 [Compound 193, N-(2,3-dimethyl-1H-indol-5-yl)-6-(methoxy(methyl)amino)-2-morpholinopyrimidine-4-carboxamide]
pIC50: > 6.00

O=C(Nc1ccc2c(c1)NCCC2)c1cc(OCCN2CCOCC2)nc(N2CCOCC2)n1 [Compound 296, 2-Morpholin-4-yl-6-(2-morpholin-4-yl-ethoxy)-pyrimidine-4-carboxylic acid (1,2,3,4-tetrahydro-quinolin-7-yl)-amide]
pIC50: ≤ 6.00

Cc1ccnc(NC(=O)c2cc(OCCc3ccccn3)nc(N3CCOCC3)n2)c1 [Compound 35, 2-Morpholin-4-yl-6-(2-pyridin-2-yl-ethoxy)-pyrimidine-4-carboxylic acid (4-methyl-pyridin-2-yl)-amide]
pIC50: ≤ 6.00

CN(CCO)c1cc(C(=O)Nc2cccc(-n3cccc3)c2)nc(N2CCOCC2)n1 [Compound 304, 6-[(2-Hydroxy-ethyl)-methyl-amino]-2-morpholin-4-yl-pyrimidine-4-carboxylic acid (3-pyrrol-1-yl-phenyl)-amide]
pIC50: > 6.00

CC(=O)N[C@H]1CCN(c2cc(C(=O)Nc3ccc4[nH]cc(C)c4c3)nc(N3CCOCC3)n2)C1 [Compound 260, (S)-6-(3-acetamidopyrrolidin-1-yl)-N-(3-methyl-1H-indol-5-yl)-2-morpholinopyrimidine-4-carboxamide]
pIC50: > 6.00

COCCN(C)c1cc(C(=O)Nc2nc(C)cc(C)n2)nc(N2CCOCC2)n1 [Compound 240, 6-[(2-Methoxy-ethyl)-methyl-amino]-2-morpholin-4-yl-pyrimidine-4-carboxylic acid (4,6-dimethyl-pyrimidin-2-yl)-amide]
pIC50: ≤ 6.00
